The nature of data set [1]: logp (HCOOH), chemicophysical data. Particulars: HCOOH (formic acid).

In turn, `Nc1nc(N[C@@H]2CCCc3ccccc32)ncc1C(F)(F)F` [Example 1.108, N2-[(1R)-1,2,3,4-Tetrahydronaphthalen-1-yl]-5-(trifluoromethyl)pyrimidine-2,4-diamine] yielded a melting point of 130.8 °C. Also, in data set [1], the chromatographic logP came to 1.64.

In turn, `Cc1ccc2c(c1)[C@H](Nc1nc(N)c(C#N)c(-c3ccccc3F)n1)[C@@H](C)C2` [Example 1.104, 4-Amino-2-{[(1R,2S)-2,6-dimethyl-2,3-dihydro-1H-inden-1-yl]amino}-6-(2-fluorophenyl)pyrimidine-5-carbonitrile] returned a melting point of 67 to 68 °C. Besides, in data set [1], the chromatographic logP was found to be 3.65.

By melting point is commonly meant the temperature, or range, at which the solid turns liquid. For orientation: chromatographic logP means lipophilicity estimated from chromatographic retention. Read a low chromatographic logP as a more hydrophilic compound.

Values taken from patent publication US8329717B2, “Pyrimidine derivatives and their use for controlling undesired plant growth” (Bayer Cropscience AG, priority 2008, dated 2012).
